Earlier results in patent US12303506B2, “Trabectedin composition” (EXTROVIS AG, priority 2022, dated 2025).

Conditions: background statement

## COc1cc2c(cc1O)CCN[C@]21CS[C@@H]2c3c(OC(C)=O)c(C)c4c(c3[C@H](COC1=O)N1[C@@H]2[C@H]2c3c(cc(C)c(OC)c3O)C[C@@H]([C@@H]1O)N2C)OCO4 [Trabectedin, (1′R,6R,6aR,7R,13S,14S,16R)-5(acetyloxy)-3′,4′,6,6a,7,13,14,16-octahydro-6′,8,14-trihydroxy-7′,9-dimethoxy-4,10,23 trimethylspiro[6,16-(epithiopropanoxymethano)-7,13-imino-12H-1,3dioxolo[7,8]isoquino[3,2b][3]benzazocine-20,1′(2′H)-isoquinolin]-19-one]
  aqueous solubility: limited aqueous solubility
